Key:
Format in all cases: functional
[1] = system: SNB-19; assay: Antitumor activity against human SNB19 cells
[2] = system: Malme-3M; assay: Antitumor activity against human MALME-3M cells
[3] = system: CAKI-1; assay: Antitumor activity against human Caki1 cells
[4] = system: A549; assay: Antitumor activity against human A549 cells
[5] = system: SW-620; assay: Antitumor activity against human SW620 cells
[6] = system: BT-549; assay: Antitumor activity against human BT549 cells
[7] = system: UACC-62; assay: Antitumor activity against human UACC62 cells
[8] = system: HCC 2998; assay: Antitumor activity against human HCC2998 cells
[9] = system: MOLT-4; assay: Antitumor activity against human MOLT4 cells
[10] = Antitumor activity against human Hs 578T cells
[11] = system: NCI-H23; assay: Antitumor activity against human NCI-H23 cells
[12] = system: 786-0; assay: Antitumor activity against human 786-0 cells
[13] = system: TK-10; assay: Antitumor activity against human TK10 cells
[14] = system: SF-539; assay: Antitumor activity against human SF539 cells
[15] = system: IGROV-1; assay: Antitumor activity against human IGROV1 cells
[16] = system: NCI-H226; assay: Antitumor activity against human NCI-H226 cells
[17] = system: COLO 205; assay: Antitumor activity against human COLO205 cells
[18] = system: OVCAR-8; assay: Antitumor activity against human OVCAR8 cells
[19] = system: OVCAR-4; assay: Antitumor activity against human OVCAR4 cells
[20] = system: UO-31; assay: Antitumor activity against human UO31 cells
[21] = system: RXF 393; assay: Antitumor activity against human RXF393 cells
[22] = system: OVCAR-5; assay: Antitumor activity against human OVCAR5 cells
[23] = system: T47D; assay: Antitumor activity against human T47D cells
[24] = system: SNB-75; assay: Antitumor activity against human SNB75 cells
[25] = system: HOP-62; assay: Antitumor activity against human HOP62 cells
[26] = system: SF-295; assay: Antitumor activity against human SF295 cells
[27] = system: K562; assay: Antitumor activity against human K562 cells
[28] = system: DU-145; assay: Antitumor activity against human DU145 cells
[29] = system: SK-MEL-5; assay: Antitumor activity against human SK-MEL-5 cells
[30] = system: PC-3; assay: Antitumor activity against human PC3 cells
[31] = read-out: pLC50 (the source's name) (converted)

C#C[C@@H](O)/C=C/CCCCCCCCC/C=C\CCCCCC
GI50 [1]: 52.5 nM
CC50 [1, 31]: 151 nM
TGI ([1]; read-out: pTGI (converted)): 89.1 nM
GI50 [2]: 6.31 nM
CC50 [2, 31]: 72.4 nM
TGI ([2]; read-out: pTGI (converted)): 20.4 nM
GI50 [3]: 52.5 nM
CC50 [3, 31]: 162 nM
TGI ([3]; read-out: pTGI (converted)): 91.2 nM
GI50 [4]: 45.7 nM
CC50 [4, 31]: 148 nM
TGI ([4]; read-out: pTGI (converted)): 83.2 nM
GI50 [5]: 9.33 nM
CC50 [5, 31]: 112 nM
TGI ([5]; read-out: pTGI (converted)): 42.7 nM
GI50 [6]: 38.9 nM
CC50 [6, 31]: 135 nM
TGI ([6]; read-out: pTGI (converted)): 72.4 nM
GI50 [7]: 38.9 nM
CC50 [7, 31]: 135 nM
TGI ([7]; read-out: pTGI (converted)): 72.4 nM
GI50 [8]: 43.6 nM
CC50 [8, 31]: 141 nM
TGI ([8]; read-out: pTGI (converted)): 79.4 nM
GI50 [9]: 6.46 nM
CC50 [9, 31]: 126 nM
TGI ([9]; read-out: pTGI (converted)): 26.9 nM
GI50 [10]: 44.7 nM
CC50 [10, 31]: 170 nM
TGI ([10]; read-out: pTGI (converted)): 87.1 nM
GI50 [11]: 13.5 nM
CC50 [11, 31]: 110 nM
TGI ([11]; read-out: pTGI (converted)): 45.7 nM
GI50 [12]: 42.7 nM
CC50 [12, 31]: 138 nM
TGI ([12]; read-out: pTGI (converted)): 77.6 nM
GI50 [13]: 60.3 nM
CC50 [13, 31]: 155 nM
TGI ([13]; read-out: pTGI (converted)): 97.7 nM
GI50 [14]: 44.7 nM
CC50 [14, 31]: 141 nM
TGI ([14]; read-out: pTGI (converted)): 79.4 nM
GI50 [15]: 0.562 nM
CC50 [15, 31]: 2.19 nM
TGI ([15]; read-out: pTGI (converted)): 1.12 nM
GI50 [16]: 30.2 nM
CC50 [16, 31]: 129 nM
TGI ([16]; read-out: pTGI (converted)): 61.7 nM
GI50 [17]: 43.6 nM
CC50 [17, 31]: 141 nM
TGI ([17]; read-out: pTGI (converted)): 79.4 nM
GI50 [18]: 37.1 nM
CC50 [18, 31]: 132 nM
TGI ([18]; read-out: pTGI): 70.8 nM
GI50 [19]: 18.6 nM
CC50 [19, 31]: 112 nM
TGI ([19]; read-out: pTGI (converted)): 51.3 nM
GI50 [20]: 52.5 nM
CC50 [20, 31]: 151 nM
TGI ([20]; read-out: pTGI (converted)): 89.1 nM
GI50 [21]: 33.1 nM
CC50 [21, 31]: 132 nM
TGI ([21]; read-out: pTGI (converted)): 66.1 nM
GI50 [22]: 46.8 nM
CC50 [22, 31]: 145 nM
TGI ([22]; read-out: pTGI (converted)): 81.3 nM
GI50 [23]: 6.31 nM
CC50 [23, 31]: 115 nM
TGI ([23]; read-out: pTGI (converted)): 42.7 nM
GI50 [24]: 12.3 nM
CC50 [24, 31]: 107 nM
TGI ([24]; read-out: pTGI (converted)): 43.6 nM
GI50 [25]: 52.5 nM
CC50 [25, 31]: 151 nM
TGI ([25]; read-out: pTGI (converted)): 89.1 nM
GI50 [26]: 44.7 nM
CC50 [26, 31]: 145 nM
TGI ([26]; read-out: pTGI (converted)): 79.4 nM
GI50 [27]: 30.9 nM
CC50 [27, 31]: 155 nM
TGI ([27]; read-out: pTGI (converted)): 69.2 nM
GI50 [28]: 47.9 nM
CC50 [28, 31]: 145 nM
TGI ([28]; read-out: pTGI (converted)): 83.2 nM
GI50 [29]: 32.4 nM
CC50 [29, 31]: 129 nM
TGI ([29]; read-out: pTGI (converted)): 64.6 nM
GI50 [30]: 39.8 nM

From ChEMBL document CHEMBL1150095, “Antitumor activity and stereochemistry of acetylenic alcohols from the sponge Cribrochalina vasculum” (1995)
